Experimental data: ChEMBL document CHEMBL5370559, “Plasmodium-Resistant Indole Diterpenoid Biosynthesis Gene Cluster Derived from Aspergillus oryzae Was Activated by Exogenous P450 Gene Ast B” (J Nat Prod, 2023)

Key:
Plasmodium falciparum [1] = assay: Antiplasmodial activity against erythrocytic stage chloroquine sensitive Plasmodium falciparum 3D7 assessed as parasitic growth inhibition measured after 3 days by HRP2-ELISA assay; assay type: functional, organism-based; details: 3D7, 72 h
Plasmodium falciparum [2] = assay: Antiplasmodial activity against erythrocytic stage chloroquine resistant Plasmodium falciparum dD2 assessed as parasitic growth inhibition measured after 3 days by HRP2-ELISA assay; assay type: functional, organism-based; details: dD2, 72 h

Cc1cc2[nH]c3ccccc3c2c2c1CC[C@@]13[C@H](O)CC[C@@H](C)[C@]1(C)[C@H](O)C[C@@H](C)[C@@H]23
IC50 (Plasmodium falciparum [1]): 49 µM

C=CC(C)(C)c1cccc2[nH]c3c(c12)C[C@@H]1CC(=O)[C@@]2(O)C4=CC(=O)[C@@H](C(C)(C)O)O[C@]4(O)CC[C@]2(C)[C@@]31C
IC50 (Plasmodium falciparum [1]): 57 µM

C=CC(C)(C)c1cccc2[nH]c3c(c12)C[C@@H]1CC[C@@]2(O)C4=CC(=O)[C@@H]5O[C@@]4(CC[C@]2(C)[C@@]31C)OC5(C)C [AFLATREME]
IC50 (Plasmodium falciparum [1]): > 200 µM

C[C@@H]1CC[C@@]2(C)[C@H](C)CC[C@@H](O)[C@]23CC[C@@H](C(C)(C)O)[C@H](c2c[nH]c4ccccc24)[C@H]13
IC50 (Plasmodium falciparum [1]): > 200 µM

C[C@H](CO)C1=C(c2c[nH]c3ccccc23)[C@@H]2[C@H](C)C[C@@H](O)[C@@]3(C)[C@H](C)CC[C@@H](O)[C@@]23CC1
IC50 (Plasmodium falciparum [1]): 26 µM

CC(C)C1=C(c2c[nH]c3ccccc23)[C@@H]2[C@H](C)C[C@@H](O)[C@@]3(C)[C@H](C)CC[C@@H](O)[C@@]23CC1
IC50 (Plasmodium falciparum [1]): 52 µM

CC(C)C1=CC[C@]23[C@@H]([C@H](C)CC[C@@]2(C)[C@H](C)CC[C@H]3O)[C@H]1c1c[nH]c2ccccc12
IC50 (Plasmodium falciparum [1]): 31 µM

CC(C)(O)[C@@H]1CC[C@]2(C)[C@H](CC[C@@]3(C)[C@H]2CC[C@H]2Cc4c([nH]c5ccccc45)[C@@]23C)O1 [PASPALINE]
IC50 (Plasmodium falciparum [1]): 2.2 µM | IC50 (Plasmodium falciparum [2]): > 200 µM

CC(C)=CCC[C@]1(C)[C@@H](O)CC[C@@]2(C)[C@H]1CC[C@H]1Cc3c([nH]c4ccccc34)[C@@]12C [EMINDOLE SB]
IC50 (Plasmodium falciparum [1]): 2.9 µM | IC50 (Plasmodium falciparum [2]): 34 µM

CC1=CC[C@@H](O)[C@@]23CC=C(C(C)C)[C@H](c4c[nH]c5ccccc45)[C@@H]2[C@H](C)CC[C@@]13C
IC50 (Plasmodium falciparum [1]): 20 µM

C=CC(C)(C)c1ccc2[nH]c3c(c2c1)C[C@@H]1CC[C@H]2C4=CC(=O)[C@@H](C(C)(C)O)O[C@H]4CC[C@]2(C)[C@@]31C
IC50 (Plasmodium falciparum [1]): 1.3 µM | IC50 (Plasmodium falciparum [2]): 96 µM

C[C@@H]1CC[C@H]2[C@@H](C)C(=O)O[C@@H]3O[C@@]4(C)CC[C@@H]1[C@]32OO4 [ARTEMISININ]
IC50 (Plasmodium falciparum [1]): 0.013 µM | IC50 (Plasmodium falciparum [2]): 12 µM

CC(C)C1=C(c2c[nH]c3ccccc23)[C@@H]2[C@H](C)CC[C@@]3(C)[C@H](C)CC[C@@H](O)[C@@]23CC1
IC50 (Plasmodium falciparum [1]): 2.8 µM | IC50 (Plasmodium falciparum [2]): > 200 µM

CC(C)(O)[C@H]1O[C@@]2(O)CC[C@@]3(C)[C@@H](CC[C@H]4Cc5c([nH]c6ccccc56)[C@@]43C)C2=CC1=O
IC50 (Plasmodium falciparum [1]): 1.1 µM | IC50 (Plasmodium falciparum [2]): 153 µM

C=CC(C)(C)c1cccc2[nH]c3c(c12)C[C@@H]1CC[C@H]2C4=CC(=O)[C@@H](C(C)(C)O)O[C@H]4CC[C@]2(C)[C@@]31C
IC50 (Plasmodium falciparum [1]): 0.84 µM | IC50 (Plasmodium falciparum [2]): 41 µM

CC(C)(O)[C@H]1O[C@H]2CC[C@@]3(C)[C@@H](CC[C@H]4Cc5c([nH]c6ccccc56)[C@@]43C)C2=CC1=O [DEHYDROXYPAXILLINE]
IC50 (Plasmodium falciparum [1]): 0.9 µM | IC50 (Plasmodium falciparum [2]): 69 µM
